{
  "source": "patent US9580521B1",
  "about": "“Process for making a poly(zwitterion/dianion)” (King Fahd University of Petroleum and Minerals, priority 2013, dated 2017)",
  "experiment": "Inhibition of calcium sulfate (gypsum) scaling, conductivity measurements",
  "conditions": "20 ppm, supersaturated CaSO4 (3 CB); for 4, 9 and 5 screening by visual inspection under the same conditions",
  "description": "The concentration of reject brine (i.e., concentrated brine (CB)) is denoted as 1 CB.\nThe evaluation of the newly developed scale inhibitor PZA 6 was performed in 3 CB solutions supersaturated with respect to CaSO4 as confirmed from solubility data of CaSO4. To a solution of 6 CB calcium chloride (60 mL) containing PZA 6 (40 ppm i.e. 40 mg/L) at 40° C.±1° C. was added quickly a preheated (40° C.) solution of 6 CB sodium sulfate (60 mL). The resultant 3 CB solution containing 20 ppm of PZA 6 was stirred at 300 rpm using a magnetic stir-bar, and conductivity measurements were made at an interval of every 10 min initially to quantify the effectiveness of the newly developed antiscalant. The drop in conductivity indicates the precipitation of CaSO4. Induction time was measured with a decrease in conductivity when precipitation started. Visual inspection was carefully done to see any turbidity arising from precipitation.\nThe reject brine in the Reverse Osmosis process has dissolved salts which precipitate in the event of exceeding their solubility limits. […]\nA drop in conductivity is indicative of precipitation of CaSO4. […] To our satisfaction, there was no considerable change in conductivity for about 500 min, registering a 98% scale inhibition as calculated using eq 5: […]",
  "data": [
    {"smiles": "C=CC[N+](CC=C)(CCCP(=O)(OCC)OCC)CCCS(=O)(=O)[O-]", "note": "[Monomer 4, 3-[diallyl {3-(diethoxyphosphoryl)propyl}ammonio]propane-1-sulfonate]", "values": [
      {"measurement": "CaSO4 scale inhibition (in words)", "value": "neither monomers 4 and 9 nor polymer 5 gave any effective inhibition"}
    ]}
  ]
}
